Experimental data: patent publication US9249161B2, “Bromodomain inhibitors and uses thereof” (Constellation Pharmaceuticals, Inc., priority 2010, dated 2016)

The compounds below were run against T1, BRD4(BD1) (Homo sapiens, UniProt O60885) (assay: BRD4 Alphalisa binding assay). Conditions: not given.
T1 construct: His; made in house
Protocol: IC50 Measurements for Inhibitors Using BRD4 Alphalisa Binding Assay
His/[…] epitope tagged BRD4 BD142-168 was cloned, expressed and purified to homogeneity. BRD4 binding and inhibition was assessed by monitoring the engagement of biotinylated H4-tetraacetyl peptide (Millipore #12-379) with the target using the AlphaLisa technology (Perkin-Elmer). Specifically, in a 384 well ProxiPlate BRD4(BD1) (30 nM final) was combined with peptide (200 nM final) in 40 mM HEPES (pH 7.0), 40 mM NaCl, 1 mM DTT, 0.01% (w/v) BSA, and 0.008% (w/v) Brij-35 either in the presence of DMSO (final 1.2% DMSO) or compound dilution series in DMSO. After 20 minute incubation at room temperature Alpha streptavidin donor beads and AlphaLisa anti-Flag acceptor beads were added to a final concentration of 10 ug/mL each. After three hours equilibration plates were read on an Envision instrument and IC50s calculated using a four parameter non-linear curve fit.

| Structure (SMILES) | IC50 [nM] |
| --- | --- |
| Cc1sc2c(c1C)C(c1ccc(Cl)cc1)=NC1(CC1)c1nnc(C)n1-2 [Compound 214, 4′-(4-Chlorophenyl)-2′,3′,9′-trimethylspiro[cyclopropane-1,6′-thieno[3,2-f][1,2,4]triazolo[4,3-a][1,4]diazepine]] | < 500 |

Same assay, conditions: BRD4(BD1) 30 nM, biotinylated H4-tetraacetyl peptide 200 nM; read-out: BRD4 Alphascreen IC50

| IC50 [nM] | Structure (SMILES) |
| --- | --- |
| > 1000 | Cc1sc2c(c1C)C(c1ccc(Cl)cc1)=NC1(CC1)c1nncn1-2 [Compound 217, 4′-(4-Chlorophenyl)-2′,3′-dimethylspiro[cyclopropane-1,6′-thieno[3,2-f][1,2,4]triazolo[4,3-a][1,4]diazepine]] |
| < 500 | Cc1sc2c(c1C)C(c1ccc(Cl)cc1)=NC1(CC1C)c1nnc(C)n1-2 (racemic) [Compound 215, 4′-(4-chlorophenyl)-2,2′,3′,9′-tetramethylspiro[cyclopropane-1,6′-thieno[3,2-f][1,2,4]triazolo[4,3-a][1,4]diazepine]] |
| < 500 | Cc1sc2c(c1C)C(c1ccc(Cl)cc1)=N[C@]1(C[C@H]1CN)c1nnc(C)n1-2 [Compound 206, ((1S,2S)-4′-(4-Chlorophenyl)-2′,3′,9′-trimethylspiro[cyclo-propane-1,6′-thieno[3,2-f][1,2,4]triazolo[4,3-a][1,4]diazepin]-2-yl)methanamine] |
| > 1000 | Cc1sc2c(c1C)C(c1ccc(Cl)cc1)=N[C@@]1(C[C@@H]1C)C(=O)N2 [Compound 218, (1R,2S)-5′-(4-chlorophenyl)-2,6′,7′-trimethylspiro[cyclopropane-1,3′-thieno[2,3-e][1,4]diazepin]-2′(1′H)-one] |
| 500 to 1000 | Cc1sc2c(c1C)C(c1ccc(Cl)cc1)=N[C@]1(C[C@H]1C(N)=O)c1nnc(C)n1-2 [Compound 205, (1S,2R)-4′-(4-Chlorophenyl)-2′,3′,9′-trimethylspiro[cyclo-propane-1,6′-thieno[3,2-f][1,2,4]triazolo[4,3-a][1,4]diazepine]-2-carboxamide] |
| < 500 | Cc1sc2c(c1C)C(c1ccc(Cl)cc1)=NC1(CCC1)c1nnc(C)n1-2 [Compound 223, 4′-(4-chlorophenyl)-2′,3′,9′-trimethylspiro[cyclobutane-1,6′-thieno[3,2-f][1,2,4]triazolo[4,3-a][1,4]diazepine]] |
| < 500 | Cc1sc2c(c1C)C(c1ccc(Cl)cc1)=N[C@@]1(C[C@@H]1C)c1nnc(C)n1-2 [Compound 219, (1R,2S)-4′-(4-chlorophenyl)-2,2′,3′,9′-tetramethylspiro-[cyclopropane-1,6′-thieno[3,2-f][1,2,4]triazolo[4,3-a][1,4]diazepine]] |
| < 500 | COC[C@@H]1C[C@]12N=C(c1ccc(Cl)cc1)c1c(sc(C)c1C)-n1c(C)nnc12 [Compound 202, (1S,2R)-4′-(4-chlorophenyl)-2-(methoxymethyl)-2′,3′,9′-trimethylspiro[cyclopropane-1,6′-thieno[3,2-f][1,2,4]triazolo[4,3-a][1,4]diazepine]] |
| > 1000 | CCNC(=O)[C@@H]1C[C@]12N=C(c1ccc(Cl)cc1)c1c(sc(C)c1C)-n1c(C)nnc12 [Compound 204, (1S,2R)-4′-(4-chlorophenyl)-N-ethyl-2′,3′,9′-trimethylspiro[cyclopropane-1,6′-thieno[3,2-f][1,2,4]triazolo[4,3-a][1,4]diazepine]-2-carboxamide] |
| < 500 | Cc1noc2c1-c1ccc(-c3ccc(N)nc3)cc1C(c1ccc(F)cc1)=NC21CC1 [Compound 251, 5-(6-(4-Fluorophenyl)-1-methylspiro[benzo[c]isoxazolo[4,5-e]azepine-4,1′-cyclopropan]-8-yl)pyridin-2-amine] |
| > 1000 | CCNC(=O)[C@@H]1C[C@@]12N=C(c1ccc(Cl)cc1)c1c(sc(C)c1C)-n1c(C)nnc12 [Compound 212, (1R,2R)-4′-(4-Chlorophenyl)-N-ethyl-2′,3′,9′-trimethylspiro-[cyclopropane-1,6′-thieno[3,2-f][1,2,4]triazolo[4,3-a][1,4]diazepine]-2-carboxamide] |
| < 500 | Cc1sc2c(c1C)C(c1ccc(Cl)cc1)=N[C@@]1(C[C@@H]1CO)c1nnc(C)n1-2 [Compound 210, ((1R,2S)-4′-(4-Chlorophenyl)-2′,3′,9′-trimethylspiro[cyclo-propane-1,6′-thieno[3,2-f][1,2,4]triazolo[4,3-a][1,4]diazepin]-2-yl)methanol] |
| > 1000 | Cc1noc2c1-c1ccc(Cl)cc1C(c1ccc(F)cc1)=NC21CC1 [Compound 250, 8-Chloro-6-(4-fluorophenyl)-1-methylspiro[benzo[c]isoxazolo[4,5-e]azepine-4,1′-cyclopropane]] |
| > 1000 | Cc1nsc2c1C(c1ccc(Cl)cc1)=NC1(CC1)c1nnc(C)n1-2 [Compound 213, 4′-(4-chlorophenyl)-3′,9′-dimethylspiro[cyclopropane-1,6′-isothiazolo[4,5-f][1,2,4]triazolo[4,3-a][1,4]diazepine]] |
| > 1000 | Cc1sc2c(c1C)C(c1ccc(Cl)cc1)=NC1(CNC1)c1nnc(C)n1-2 [Compound 224, 4′-(4-chlorophenyl)-2′,3′,9′-trimethylspiro[azetidine-3,6′-thieno[3,2-f][1,2,4]triazolo[4,3-a][1,4]diazepine]] |
| < 500 | Cc1sc2c(c1C)C(c1ccc(Cl)cc1)=NC1(COC1)c1nnc(C)n1-2 [Compound 226, 4′-(4-Chlorophenyl)-2′,3′,9′-trimethylspiro[oxetane-3,6′-thieno[3,2-f][1,2,4]triazolo[4,3-a][1,4]diazepine]] |
| > 1000 | Cc1sc2c(c1C)C(c1ccc(Cl)cc1)=N[C@]1(C[C@H]1C)c1n[nH]c(=O)n1-2 [Compound 222, (1S,2R)-4′-(4-chlorophenyl)-2,2′,3′-trimethylspiro[cyclopropane-1,6′-thieno[3,2-f][1,2,4]triazolo[4,3-a][1,4]diazepin]-9′(8′H)-one 2,2,2-trifluoroacetic acid] |
| < 500 | CC(=O)NC[C@@H]1C[C@]12N=C(c1ccc(Cl)cc1)c1c(sc(C)c1C)-n1c(C)nnc12 [Compound 207, N-(((1S,2S)-4′-(4-Chlorophenyl)-2′,3′,9′-trimethylspiro[cyclopropane-1,6′-thieno[3,2-f][1,2,4]triazolo[4,3-a][1,4]diazepin]-2-yl)methyl)acetamide] |
| < 500 | Cc1sc2c(c1C)C(c1ccc(N)cc1)=N[C@]1(C[C@H]1C)c1nnc(C)n1-2 [Compound 221, 4-((1S,2R)-2,2′,3′,9′-tetramethylspiro[cyclopropane-1,6′-thieno[3,2-f][1,2,4]triazolo[4,3-a][1,4]diazepin]-4′-yl)aniline] |
| < 500 | Cc1sc2c(c1C)C(c1ccc(Cl)cc1)=N[C@]1(C[C@H]1CO)c1nnc(C)n1-2 [Compound 203, ((1S,2R)-4′-(4-chlorophenyl)-2′,3′,9′-trimethylspiro[cyclopropane-1,6′-thieno[3,2-f][1,2,4]triazolo[4,3-a][1,4]diazepin]-2-yl)methanol] |
| < 500 | CCNC[C@@H]1C[C@]12N=C(c1ccc(Cl)cc1)c1c(sc(C)c1C)-n1c(C)nnc12 [Compound 208, N-(((1S,2S)-4′-(4-Chlorophenyl)-2′,3′,9′-trimethylspiro[cyclopropane-1,6′-thieno[3,2-f][1,2,4]triazolo[4,3-a][1,4]diazepin]-2-yl)methyl)ethanamine] |
| > 1000 | Cc1noc2c1-c1cn(C)nc1C(c1ccc(Cl)cc1)=NC2 [Compound 265, 6-(4-chlorophenyl)-1,8-dimethyl-4,8-dihydroisoxazolo[5,4-c]pyrazolo[4,3-e]azepine] |
| < 500 | COC[C@H]1C[C@@]12N=C(c1ccc(Cl)cc1)c1c(sc(C)c1C)-n1c(C)nnc12 [Compound 209, (1R,2S)-4′-(4-chlorophenyl)-2-(methoxymethyl)-2′,3′,9′-trimethylspiro[cyclopropane-1,6′-thieno[3,2-f][1,2,4]triazolo[4,3-a][1,4]diazepine]] |
| > 1000 | CCNC(=O)[C@H]1C[C@@]12N=C(c1ccc(Cl)cc1)c1c(sc(C)c1C)-n1c(C)nnc12 [Compound 211, (1R,2S)-4′-(4-chlorophenyl)-N-ethyl-2′,3′,9′-trimethylspiro[cyclopropane-1,6′-thieno[3,2-f][1,2,4]triazolo[4,3-a][1,4]diazepine]-2-carboxamide] |
| < 500 | Cc1sc2c(c1C)C(c1ccc(Cl)cc1)=N[C@]1(C[C@H]1C)c1nnc(C)n1-2 [Compound 220, (1S,2R)-4′-(4-chlorophenyl)-2,2′,3′,9′-tetramethyl-spiro[cyclopropane-1,6′-thieno[3,2-f][1,2,4]triazolo[4,3-a][1,4]diazepine]] |

| Structure (SMILES) | IC50 [nM] |
| --- | --- |
| Cc1nnc2n1-c1ccccc1C(c1ccc(Cl)cc1)=NC21CC1 [Compound 216, 6-(4-chlorophenyl)-1-methylspiro[benzo[f][1,2,4]triazolo[4,3-a][1,4]diazepine-4,1′-cyclopropane]] | < 500 |
